The values below come from patent US11932654B2, “Nimbolide analogs as anti-cancer agents and preparation thereof” (priority 2018, dated 2024).

As a reminder, the IC50 is the concentration at which inhibition is half-maximal. High values mean lower potency, low ones higher potency.

The test system of data set [1] is Pan-02 cells xenograft tumors. Nature of the data set: Pancreatic cancer xenograft model, anti-tumor activity. Format: in vivo, nude mice. Particulars: for Tumor Volume: 5 doses in 12 days, Pan-02 xenograft, mean ± SE. The method, then: In vivo studies: Materials and methods: Animals and cell lines: Healthy 8-10 week old nude mice of either sex, weighing between 20 g and 25 g were used as experimental animals for tumor induction. All animals were maintained under standardized animal house conditions (12 h light and 12 h dark condition) at controlled temperature (22±1° C.) and relative humidity (60-70%) in institutional registered animal house that was approved by Committee for the Purpose of Control and Supervision of Experiments on Animals (CPCSEA). They were maintained with standard pellet diet and water ad libitum. The institutional animal ethics committee approved the experimental protocol. CPCSEA guidelines were adhered to during the maintenance of animals and experiments. Pancreatic cancer cell line (Pan-02) was obtained from American Type Culture Collection and was cultured in RPMI medium.
(§1) Establishment of Pancreatic cancer xenograft model: To establish tumor in mice, Pan-02 cells (7×10^6) were suspended in 1:1 RPMI medium mixed with matrigel and subcutaneously implanted on right flank of the each mice. The injection sites were examined daily for the appearance of tumors. On 10th day these animals were randomized and divided into 3 groups (6 mice in each group). Group I served as control group received 20% ethanol three times in a week. Test group animals in Group II and III received intratumoral injection of IM-1372-Kn-13 at 10 mg and 25 mg/kg body weight respectively three times in a week. All groups received 5 repeated doses in 12 days. Mice were weighed and tumor volumes were measured 3 times a week by Vernier caliper. Tumor volume in individual mice was calculated by the following formula. 0.5×L (W)^2, Where L is length, W is width of the tumor. The control group animals were euthanized when tumor volume is reached heavier to animal. One-week after completion of treatment period, the animals were sacrificed, and tumors were excised, fixed, and embedded in paraffin. At the end of treatment, blood samples were collected to perform clinical biochemistry.

Data set [2] deals with Pan-02 cells xenograft tumors. Nature of the data set: Histopathological examination of tumors and organs of xenograft mice. The format is in vivo, nude mice. The method, then: as §1
For the next data set, the system named is NIH3T3 cells. Nature of the data set: In vitro anticancer activity, SRB assay, NIH3T3. The format is cell-based. The method, then:
(§2) In vitro anticancer activity: Cells were harvested from exponential phase cultures by trypsinization, counted and plated in 96-well plate. Optimal seeding densities for different cell lines in each plate were 5000 cells per well. After 24 h cells were treated with \ the newly synthesized compound at a dose range of 0.1-100 μm final concentration. Thereafter, cells were allowed to grow for 48 h before determination of cell survival by the SRB assay. Then the cells were fixed with 10% cold trichloroacetic acid for 1 h at 4° C. After two washes with deionized water, fixed cells were stained with 50 μL of SRB solution (1% in acetic acid) for 30 min and subsequently washed twice with 1% acetic acid to remove unbound stain. The plates were left to dry at room temperature and bound stain was solubilized with 100 μL of 10 mM buffered Tris base for reading the […] at 540 nm.
In general terms: In SRB staining, fixed cells bind dye roughly in proportion to their protein.

Data set [3] concerns A549 lung adenocarcinoma cell line. In words: In vitro anticancer activity, SRB assay, A549. Format: cell-based. Particulars: Homo sapiens, 48 h, NA = Not Active. The method, then: Cell culture: Human lung adenocarcinoma cell line (A549 cell line), pancreatic cancer cell line (Panc-1, Pan-02), prostate cancer cell line (DU145, PC3), Brest cancer cell line (MCF-7) was grown in DIEM (Dulbecco's modifications of eagle's medium with L-glutamine & 4.5 g/L glucose) supplemented with fetal bovine serum in a humidified atmosphere of a 5% CO2 at 37° C.
as §2

A short description of data set [4]: Acute toxicity test with histopathology. The method, then:
Acute toxicity test: Safety tests begin with acute toxicity testing, where the animals are given a single dose of the test compound. The aim of the tests is to determine the range between the dose that causes no adverse effect and the dose that is life-threatening. […] Different doses (50, 25, 10, and 5 mg/kg body weight) of the test compound are given to the animals separately through IP injection. Post injection, the animals were monitored for the first 4 h and observed at every hourly interval for next 24 h. Further, animals were observed everyday for 14 days for any signs of toxic effects and behavior of animals. On day 14 all the surviving animals are sacrificed by a humane method and dissected to investigate signs of toxicity internally. […] If the drug is intended for the treatment of life-threatening diseases, toxicity is less of a concern than in a drug intended for use in healthy individuals.
Histopathological examination: For pathological studies, 5 μm sections of formalin-fixed, paraffin-embedded tissue were prepared and stained with haematoxylin and eosin. After haematoxylin-eosin (HE) staining, the slides were observed and the images were taken using optical microscope (Axioplan-II imaging). All slides were reviewed in a blinded fashion by a single pathologist and assessed for the presence of necrotic lesions (nodules) in the tumors and organs of different groups of mice.

For a further data set, the system named is p21. Nature of the data set: Western blotting analysis on Panc-1 cell line, p21. The format is cell-based. To be noted: panc-1 cells, various concentrations, 24 h, Western blot. The method, then:
Western blotting analysis of IM-1372-Kn-13 on Panc-1 cell line: The cells were lysed in RIPA buffer (50 mM-tris (PH-7.4), 150 Min-Nacl, 1%-NP-40, 0.1%-SDS, 0.5%-Sodium-deoxycholate, 1 mM EDTA, 5 mM NaF, 5 mM Na—O-vandate, 1 mM PMSF, Protease inhibitor cocktail. The lysates were cleared by centrifugation at […] and concentration of protein was estimated by bradford assay. For Western blot analysis, equivalent amount of protein was resolved in SDS-PAGE and then transferred to polyvinylidene difluoride ([…]) membrane. Ti avoid non specific binding of antibodies, the membranes were blocked using 3% BSA in TBS with 0.5% Tween (TBST) for 1 h at room temperature. The membranes were then incubated in primary antibody overnight at 4° C. After removing excess primary antibody bound to membranes, blots were incubated with secondary anti body. Then the signal emitted was captured using chemiluminescence substrate.
(Immunoblotting shows a protein as a band on a membrane.)

As to `COC(=O)C[C@H]1[C@]2(C)C3=C(C)[C@H](C4=CC5OC4C(C(=O)OC)=C5C(=O)OC)C[C@@H]3O[C@@H]2[C@@H]2OC(=O)[C@]3(C)C=CC(=O)[C@@]1(C)C23` (stereo partly drawn) [A4], the “Tumor Volume” value in data set [1] (10 mg/kg intratumoral, nude mice) was found to be 181.306 ± 12.7 mm^3; in data set [1] (25 mg/kg intratumoral, nude mice), 109.46 ± 7.1 mm^3. Also, the “body weight and food intake” value in data set [1] (10 mg/kg, 25 mg/kg body weight, intratumoral, nude mice) is “did not cause any loss in body weight and food intake”. Besides, the “average volume of tumors compared to vehicle-treated animals” value in data set [1] (10 and 25 mg/kg intratumoral, p<0.0001) is “significantly decreased”. Further, in data set [2] (printed 'group I' (control group: 50%)), the “animals showing liver metastasis” value was 10 % of animals. In addition, the “metastatic invasion in liver, kidney and spleen” value in data set [2] (printed 'group II') is listed as “no metastatic invasion was found”. Further, the “liver metastasis in treated animals” value in data set [2] (treated xenograft animals vs control group) was “no liver metastasis”. In data set [2] (xenograft mice, intratumoral), the “effect on the other tissues of xenograft mice” value is “did not show any effect”. The cytotoxic activity result in the data set with NIH3T3 cells is reported as “no activity was observed”. In data set [3], this compound registered an IC50 of 4.54 µM. The organ histopathology result in data set [4] (25 mg/kg body weight) is “all organs including liver, kidney and spleen appeared normal”. Also, the survival entry in data set [4] (25 mg/kg, 10 mg/kg and 5 mg/kg) was “survived beyond the 24 h of observation”. Also, the kidney histopathology entry in data set [4] (50 mg/kg body weight) was “moderate capsular thickening and fibrosis in the renal capsules”. Moreover, in data set [4] (50 mg/kg body weight), the liver histopathology result is reported as “minor inflammation in the liver”. Further, the adverse gastrointestinal effects result in data set [4] (all the mice used in the experiment) was “no adverse gastrointestinal effects were observed”. Also, the mortality entry in data set [4] (one mouse that received 50 mg/kg) is on record as “died within 24 h”. Moreover, the “toxic effects in acute toxicity studies” value in data set [4] (up to 50 mg/kg) was “failed to show any toxic effects”. Also, the “expression of p21 protein” value with p21 was “reduced”.
